Data on three substances can be found in patent US20220389058A1, “PEPTIDES AND COMPOSITIONS FOR USE IN COSMETICS AND MEDICINE” (LIPOTRUE, S.L., priority 2019, published 2022).

“Also recorded” adds a separate entry of the source.

One assay has as its system IL33. Kind of assay: IL33 expression modulation by RT-qPCR in HEKa cells (Example 7). The assay is classed as cell-based, Human. The settings on record: 0.01 mg/mL, 24 hours. As to the method: (§1) A stock solution of the peptide was prepared in water at 1 mg/mL. Working solution was freshly prepared at the specified concentration from stock solution in the corresponding supplemented medium.
RNA (ribonucleic acid) extraction and RT-qPCR (reverse transcription quantitative polymerase chain reaction) were performed. Briefly, HDFa and HEKa cells were seeded in duplicate (n=2) in 6-well plates at a density of 4×10^5 cells/well and maintained at standard culture conditions (106 Medium supplemented with 1% (v/v) LSGS for HDFa cells; Medium Epilife supplemented with 1% (v/v) EDGS and 1% (v/v) penicillin/streptomycin for HEKa cells; 37° C., 95% room humidity, 5% CO2) for 24 hours. Then, cells were treated with peptide Ac-SEQ ID NO: 1-NH2, Ac-SEQ ID NO: 2-NH2 or Ac-SEQ ID NO: 3-NH2 at the concentration of 0.01 mg/mL for 24 hours. Untreated cells were used as basal or negative control.
Cells were finally lysed, and replicates were pooled together for RNA extraction using Qiagen RNeasy Mini kit following manufacturer's instructions. Purified RNAs were used to generate the corresponding cDNAs (complementary deoxyribonucleic acids) by reverse transcription using a commercial kit High capacity cDNA reverse transcription kit (Applied Biosystems) which served as templates for amplification. RT-qPCR was performed with the appropriate TaqMan assay probes for IL33 (plus GAPDH—Glyceraldehyde 3-phosphate dehydrogenase—that was used as housekeeping gene) and 2×gene expression Master Mix using StepOne plus Real-Time PCR instrument. […] (Annealing and extension) (Arya, M., Shergill, I. S., Williamson, M., Gommersall, L., Arya, N., Patel, H. R. (2005) Basic principles of real-time quantitative PCR. Expert Rev. Mol. Diagn.; 5(2):209-19; and Jozefczuk, J. and Adjaye, J. (2011) Quantitative real-time PCR-based analysis of gene expression. Methods Enzymol. 500; 99-109).
(§2) The obtained data was analysed using the ΔΔCt method, which provides the target gene expression values as fold changes in the treated sample compared with an untreated basal sample. […]
A general note: Quantitative PCR measures a nucleic acid by following its amplification.

Assay [1] has as its system HEKa cells. Kind of assay: Expression of genes related to epidermal cell cohesion, RT-qPCR in HEKa (Example 9). The format is cell-based, Human. To be noted: 0.01 mg/mL, 24 hours. As to the method:
as §1
RNA (ribonucleic acid) extraction and RT-qPCR (reverse transcription quantitative polymerase chain reaction) were performed. Briefly, HEKa cells were seeded in duplicate (n=2) in 6-well plates at a density of 4×10^5 cells/well and maintained at standard culture conditions (Medium Epilife supplemented with 1% (v/v) EDGS and 1% (v/v) penicillin/streptomycin; 37° C., 95% room humidity, 5% CO2) for 24 hours.
Then, cells were treated with peptide Ac-SEQ ID NO: 1-NH2, Ac-SEQ ID NO: 2-NH2 or Ac-SEQ ID NO: 3-NH2 at the concentration of 0.01 mg/mL for 24 hours. Untreated cells were used as basal or negative control.
(§3) Cells were finally lysed, and replicates were pooled together for RNA extraction using Qiagen RNeasy Mini kit following manufacturer's instructions. Purified RNAs were used to generate the corresponding cDNAs (complementary deoxyribonucleic acids) by reverse transcription using a commercial kit High capacity cDNA reverse transcription kit (Applied Biosystems) which served as templates for amplification. RT-qPCR was performed with the panel of appropriate TaqMan assay probes for genes shown in table 1 (plus GAPDH—Glyceraldehyde 3-phosphate dehydrogenase—that was used as housekeeping gene) and 2×gene expression Master Mix using StepOne plus Real-Time PCR instrument. Amplification included 40 cycles of: 15 seconds at 95° C. (denaturation) and 1 minute at 60° C. (Annealing and extension) (Arya, M., Shergill, I. S., Williamson, M., Gommersall, L., Arya, N., Patel, H. R. (2005) Basic principles of real-time quantitative PCR. Expert Rev. Mol. Diagn.; 5(2):209-19; and Jozefczuk, J. and Adjaye, J. (2011) Quantitative real-time PCR-based analysis of gene expression. Methods Enzymol. 500; 99-109).
(§4) The obtained data was analysed using the ΔΔCt method, which provides the target gene expression values as fold changes in the treated sample compared with an untreated basal sample. Both samples were normalized with the relative expression of a housekeeping gene GAPDH (Glyceraldehyde 3-phosphate dehydrogenase).

For assay [2], the system named is HDFa cells. Description: Expression of genes related with collagen production and extracellular matrix, RT-qPCR in HDFa (Example 10). The assay is classed as cell-based, Human. To be noted: 0.01 mg/mL, 24 hours. As to the method:
as §1
RNA (ribonucleic acid) extraction and RT-qPCR (reverse transcription quantitative polymerase chain reaction) were performed. Briefly, HDFa cells were seeded in duplicate (n=2) in 6-well plates at a density of 4×10^5 cells/well and maintained at standard culture conditions (106 Medium supplemented with 1% (v/v) LSGS; 37° C., 95% room humidity, 5% CO2) for 24 hours. Then, cells were treated with peptide Ac-SEQ ID NO: 1-NH2 at the concentration of 0.01 mg/mL for 24 and 48 hours. Untreated cells were used as basal or negative control.
as §3, with “table 5” for “table 1”
as §4

Assay [3] relates to recombinant mushroom tyrosinase. Description: Tyrosinase activity, L-DOPA/dopachrome absorbance (Example 11). The format is biochemical. The settings on record: 0.05-2.5 mg/mL (Ac-SEQ ID NO: 4-NH2: 0.005-2.5 mg/mL); 30 minutes preincubation, L-DOPA, 2 hours, absorbance 450 nm; vs non-treated control (100%). As to the method: Briefly, different concentrations of Ac-SEQ ID NO: 1-NH2 (0.05, 0.25, 0.5 and 2.5 mg/mL), Ac-SEQ ID NO: 2-NH2 (0.05, 0.25, 0.5 and 2.5 mg/mL), Ac-SEQ ID NO: 3-NH2 (0.05, 0.25, 0.5 and 2.5 mg/mL) and Ac-SEQ ID NO: 4-NH2 (0.005, 0.025, 0.05, 0.25, 0.5 and 2.5 mg/mL) and the positive control kojic acid (400 and 800 μM) were incubated with recombinant mushroom tyrosinase for 30 minutes before the addition of L-DOPA (L-3,4 dihidroxiphenilalanine, 2.5 mg/mL in PBS). After 2 hours' reaction at room temperature, the absorbance at 450 nm of each well was determined using the microplate reader Multiskan FC (Thermo Fisher Scientific, Mass., USA), which is directly proportional to the amount of dopachrome in the reaction mixture.

Assay [4] concerns HDFa cells. Description: Gene expression with Ac-SEQ ID NO: 4-NH2, RT-qPCR in HDFa (Example 17). The assay is classed as cell-based, Human. To be noted: 0.01 mg/mL, 24 hours. As to the method:
as §1
(§5) RNA (ribonucleic acid) extraction and RT-qPCR (reverse transcription quantitative polymerase chain reaction) were performed. Briefly, HEKa or HDFa cells were seeded in duplicate (n=2) in 6-well plates at a density of 4×10^5 cells/well and maintained at standard culture conditions (106 Medium supplemented with 1% (v/v) LSGS for HDFa cells; Medium Epilife supplemented with 1% (v/v) EDGS and 1% (v/v) penicillin/streptomycin for HEKa cells; 37° C., 95% room humidity, 5% CO2) for 24 hours.
(§6) Then, cells were treated with peptide Ac-SEQ ID NO: 4-NH2 at the concentration of 0.01 mg/mL for 24 hours. Untreated cells were used as basal or negative control.
as §3, with “table 10” for “table 1”, “C. […]” for “C. (denaturation) and 1 minute at 60° C.”
as §2

In assay [5] the test system is HEKa cells. Kind of assay: Gene expression with Ac-SEQ ID NO: 4-NH2, RT-qPCR in HEKa (Example 17). The assay is classed as cell-based, Human. To be noted: 0.01 mg/mL, 24 hours. On the procedure:
as §1, §5, §6
as §3, with “table 10” for “table 1”
as §4

As for “Ac-Met-Arg-Arg-Glu-Gln-Arg-NH2 (Ac-MRREQR-NH2) [Ac-SEQ ID NO: 2-NH2]”, the “IL33 gene expression, fold change in treated cells with regard to basal control” value in the assay on IL33 is −3.77 fold change. Further, in the assay with HEKa cells [1], the “CLDN4 Fold change between treated cells and basal control” value amounted to 1.51 Fold change; the “OCLN Fold change between treated cells and basal control” value was 1.58 Fold change; the “PCDH1 Fold change between treated cells and basal control” value came to 2.14 Fold change; the “PKP2 Fold change between treated cells and basal control” value was determined as 1.42 Fold change. For the same substance, in the assay on HEKa cells [1], the “TJP1 Fold change between treated cells and basal control” value came out at 1.34 Fold change. In the assay on HDFa cells [2], the “FBN1 Fold change between treated cells and basal control” value amounted to 1.20 Fold change; the “MMP1 Fold change between treated cells and basal control” value is listed as −1.21 Fold change. Further, the tyrosinase activity result in assay [3] is “showed inhibition of tyrosinase activity in a dose-dependent manner from 0.05 mg/mL and onwards”.

“Ac-Arg-Arg-Gln-Met-Glu-Glu-NH2 (Ac-RRQMEE-NH2) [Ac-SEQ ID NO: 4-NH2, a peptide not of the present invention, very similar comparison peptide]”: the tyrosinase activity result in assay [3] is “did not inhibit tyrosinase activity in any of the concentrations tested; also recorded: from concentration 0.05 mg/mL and onwards it increased tyrosinase activity in a dose-dependent manner”. In the assay with HDFa cells [4], the “COL3A1 Fold change between treated cells and basal control” value is listed as −1.28 Fold change; the “IL1RL1 Fold change between treated cells and basal control” value is given as −1.12 Fold change; the “TIMP2 Fold change between treated cells and basal control” value is reported as −1.26 Fold change. Further, in the assay with HEKa cells [5], the “CDSN Fold change between treated cells and basal control” value was −1.04 Fold change; the “IL33 Fold change between treated cells and basal control” value is on record as −1.01 Fold change; the “OCLN Fold change between treated cells and basal control” value is listed as −1.08 Fold change; the “SIGIRR Fold change between treated cells and basal control” value was −1.49 Fold change. Moreover, in the assay on HEKa cells [5], the “SLC2A1 Fold change between treated cells and basal control” value was −1.07 Fold change; the “TJP1 Fold change between treated cells and basal control” value was −1.04 Fold change.

In the case of “Ac-Arg-Glu-Gln-Met-Arg-Arg-NH2 (Ac-REQMRR-NH2) [Ac-SEQ ID NO: 3-NH2]”, in the assay with IL33, the “IL33 gene expression, fold change in treated cells with regard to basal control” value is −3.93 fold change. In addition, in the assay on HEKa cells [1], the “CLDN1 Fold change between treated cells and basal control” value was 1.5 Fold change; the “CLDN4 Fold change between treated cells and basal control” value is 1.90 Fold change; the “DSC1 Fold change between treated cells and basal control” value is 1.41 Fold change; the “DSC2 Fold change between treated cells and basal control” value worked out at 1.43 Fold change. In the assay on HEKa cells [1], the “DSP Fold change between treated cells and basal control” value is 1.28 Fold change; the “JUP Fold change between treated cells and basal control” value worked out at 1.23 Fold change; the “OCLN Fold change between treated cells and basal control” value amounted to 1.99 Fold change; the “PCDH1 Fold change between treated cells and basal control” value worked out at 2.48 Fold change. Also, in the assay on HEKa cells [1], the “PKP2 Fold change between treated cells and basal control” value is reported as 1.86 Fold change; the “PPL Fold change between treated cells and basal control” value was determined as 1.52 Fold change; the “TJP1 Fold change between treated cells and basal control” value came to 1.43 Fold change. Further, in the assay on HDFa cells [2], the “FBN1 Fold change between treated cells and basal control” value is given as 1.29 Fold change; the “MMP1 Fold change between treated cells and basal control” value is given as −1.46 Fold change; the “MMP3 Fold change between treated cells and basal control” value is given as −1.30 Fold change. In addition, in assay [3], the tyrosinase activity result was “showed a dose-dependent inhibition of tyrosinase activity at concentrations of 0.25 mg/mL and higher”.
